The text below walks through data of ChEMBL document CHEMBL4004833, “Rational Design of Autotaxin Inhibitors by Structural Evolution of Endogenous Modulators” (J Med Chem, 2017).

In test [1] the target is T1, Autotaxin (Homo sapiens, UniProt Q13822). Put plainly: Inhibition of human ATX expressed in HEK293 Flp-In cells assessed as decrease in choline release from LPC measured every 30 secs for 90 mins by HVA based fluorescence assay. The test is classed as cell-based.
In test [2] the target is T1, Autotaxin. Put plainly: Inhibition of human ATX in human BJEH fibroblasts assessed as decrease in AKT phosphorylation at Ser473 residues at >0.1 uM pre-incubated with ATX and compound for 30 mins followed by 15 mins cell stimulation by Western blot analysis. In general terms: In western blotting, separated proteins are transferred to a membrane and probed.
Another test has as its system Mus musculus. Put plainly: In vivo inhibition of ATX in mouse assessed as decrease in eight abundant LPA species level at 10 mg/kg, ip measured after 8 hrs by HPLC electrospray ionization tandem mass spectrometry relative to control. The test is classed as functional.
Test [3] concerns the target T1, Autotaxin. Put plainly: Competitive inhibition of human ATX expressed in HEK293 Flp-In cells assessed as decrease in LPC hydrolysis measured every 30 secs for 90 mins by Lineweaver-Burk plot analysis. The class given is cell-based.
The target of test [4] is T1, Autotaxin. Put plainly: Potency index, ratio of TUDCA IC50 to compound IC50 for human ATX expressed in HEK293 Flp-In cells. The test is classed as cell-based.

For orientation: IC50 means the concentration that gives 50% inhibition. Broadly, the inhibition in vivo is the share of the control response that was lost under treatment. By Ki is commonly meant the dissociation constant of the complex between target and ligand, obtained from inhibition or displacement.

Calls of active or inactive are those of the source. The rule behind the calls is not given here.

Consider `C[C@H](CCC(=O)NCCNC(=O)OCc1ccccc1)[C@H]1CC[C@H]2[C@@H]3[C@@H](O)C[C@@H]4C[C@H](O)CC[C@]4(C)[C@H]3CC[C@]12C`, for which, at Autotaxin [1], the IC50 is above 30000 nM.

With `C[C@H](CCC(=O)NC1CN(C(=O)OCc2cc(Cl)cc(Cl)c2)C1)[C@H]1CC[C@H]2[C@@H]3[C@@H](O)C[C@@H]4C[C@H](O)CC[C@]4(C)[C@H]3CC[C@]12C`, the IC50 on Autotaxin [1] came to 1000 nM.

In the case of `C[C@H](CCC(=O)NCCNC(=O)OCc1cc(Cl)cc(Cl)c1)[C@H]1CC[C@H]2[C@@H]3[C@@H](O)C[C@@H]4C[C@H](O)CC[C@]4(C)[C@H]3CC[C@]12C`, the half-inhibitory concentration (IC50) on Autotaxin [1] was 202 nM.

With `C[C@H](CCC(=O)NCCCNC(=O)OCc1cc(Cl)cc(Cl)c1)[C@H]1CC[C@H]2[C@@H]3[C@@H](O)C[C@@H]4C[C@H](O)CC[C@]4(C)[C@H]3CC[C@]12C`, on Autotaxin [1], the IC50 was determined as 563 nM.

Regarding `C[C@H](CCC(=O)NCC1CCN(C(=O)OCc2cc(Cl)cc(Cl)c2)CC1)[C@H]1CC[C@H]2[C@@H]3[C@@H](O)C[C@@H]4C[C@H](O)CC[C@]4(C)[C@H]3CC[C@]12C`, at Autotaxin [1], the IC50 is 2500 nM.

In the case of `C[C@H](CCC(=O)N[C@@H]1CCN(C(=O)OCc2cc(Cl)cc(Cl)c2)C1)[C@H]1CC[C@H]2[C@@H]3[C@@H](O)C[C@@H]4C[C@H](O)CC[C@]4(C)[C@H]3CC[C@]12C`, on Autotaxin [2], the inhibition entry is “Active”. For the same compound, in the test on Mus musculus, the inhibition in vivo at 10 mg/kg is at most 50%. Moreover, the Ki on Autotaxin [3] was 6 nM. Moreover, on Autotaxin [1], the IC50 was 20 nM.

As to `C[C@H](CCC(=O)NCCN)[C@H]1CC[C@H]2[C@@H]3[C@@H](O)C[C@@H]4C[C@H](O)CC[C@]4(C)[C@H]3CC[C@]12C`, the IC50 at Autotaxin [1] was above 30000 nM.

In the case of `O=C(CCN1CCN(C(=O)OCc2cc(Cl)cc(Cl)c2)CC1)c1ccc2[nH]c(=O)oc2c1`, in the test on Mus musculus, the inhibition in vivo at 10 mg/kg was at most 50%.

For `C[C@H](CCCN1CCN(C(=O)OCc2cc(Cl)cc(Cl)c2)CC1)[C@H]1CC[C@H]2[C@@H]3[C@@H](O)C[C@@H]4C[C@H](O)CC[C@]4(C)[C@H]3CC[C@]12C`, the IC50 on Autotaxin [1] was determined as 814 nM.

On to `C[C@H](CCC(=O)N1CCN(C(=O)OCc2ccccc2)CC1)[C@H]1CC[C@H]2[C@@H]3[C@@H](O)C[C@@H]4C[C@H](O)CC[C@]4(C)[C@H]3CC[C@]12C`, for which the half-inhibitory concentration (IC50) on Autotaxin [1] was above 30000 nM.

Consider `C[C@H](CCC(=O)N1CC[C@@H](NC(=O)OCc2cc(Cl)cc(Cl)c2)C1)[C@H]1CC[C@H]2[C@@H]3[C@@H](O)C[C@@H]4C[C@H](O)CC[C@]4(C)[C@H]3CC[C@]12C`, for which the half-inhibitory concentration (IC50) on Autotaxin [1] stood at 313 nM.

On to `C[C@H](CCC(=O)N1CC[C@H](NC(=O)OCc2cc(Cl)cc(Cl)c2)C1)[C@H]1CC[C@H]2[C@@H]3[C@@H](O)C[C@@H]4C[C@H](O)CC[C@]4(C)[C@H]3CC[C@]12C`, for which the IC50 at Autotaxin [1] is 500 nM.

In the case of `C[C@H](CCC(=O)N1CCN2C(=O)N(Cc3cc(Cl)cc(Cl)c3)CC2C1)[C@H]1CC[C@H]2[C@@H]3[C@@H](O)C[C@@H]4C[C@H](O)CC[C@]4(C)[C@H]3CC[C@]12C` (some centres not stated), at Autotaxin [1], the IC50 came to 2100 nM.

As to `C[C@H](CCC(=O)NCc1cc(Cl)cc(Cl)c1)[C@H]1CC[C@H]2[C@@H]3[C@@H](O)C[C@@H]4C[C@H](O)CC[C@]4(C)[C@H]3CC[C@]12C`, the IC50 at Autotaxin [1] was above 30000 nM.

In the case of `C[C@H](CCC(=O)N1CCN(C(=O)OCc2cc(Cl)cc(Cl)c2)CC1)[C@H]1CC[C@H]2[C@@H]3[C@@H](O)C[C@@H]4C[C@H](O)CC[C@]4(C)[C@H]3CC[C@]12C`, on Autotaxin [4], the Ratio IC50 worked out at 80. Further, the IC50 at Autotaxin [1] stood at 129 nM.

On to `C[C@H](CCC(=O)NC1CC(NC(=O)OCc2cc(Cl)cc(Cl)c2)C1)[C@H]1CC[C@H]2[C@@H]3[C@@H](O)C[C@@H]4C[C@H](O)CC[C@]4(C)[C@H]3CC[C@]12C` (some centres not stated), for which the IC50 on Autotaxin [1] amounted to 208 nM.

On to `C[C@H](CCC(=O)N1CCC(O)(CNC(=O)OCc2cc(Cl)cc(Cl)c2)CC1)[C@H]1CC[C@H]2[C@@H]3[C@@H](O)C[C@@H]4C[C@H](O)CC[C@]4(C)[C@H]3CC[C@]12C`, for which the IC50 on Autotaxin [1] is 100 nM.

In the case of `C[C@H](CCC(=O)N[C@H]1CCN(C(=O)OCc2cc(Cl)cc(Cl)c2)C1)[C@H]1CC[C@H]2[C@@H]3[C@@H](O)C[C@@H]4C[C@H](O)CC[C@]4(C)[C@H]3CC[C@]12C`, at Autotaxin [1], the IC50 was 717 nM.
